Assay results: patent US11479587B2, “Cationic intrinsically disordered antimicrobial peptides” (priority 2016, dated 2022)
Marks after values point to notes of the source that are not given here. No end group written: not given here. *: point of attachment. Biotin = O=C1N[C@H]2[C@H](CS[C@H]2CCCCC(=O)*)N1

Each substance was assayed on P. aeruginosa ATCC 10145 (assay: CFU-assay, P. aeruginosa-cidal activity). Conditions: pH 5.0, 0.25% glucose.
Format: cell-based, Pseudomonas aeruginosa

**Q.** Which results are given for “GRHGSGGGHSSSHGGHGSGSGR (Modified peptide derived from human hornerin (HR 1-18 L-G/Q-G))”?
**A.** MBC90: 0.038 µg/mL; MBC100: 0.15 µg/mL

**Q.** Which MBC90 does the source give for “GRGGSGLGGSSSGGQGGSGSGRSSSRGPY (Modified peptide derived from human hornerin (HR 1-17 4H-4G all H vs G))” here?
**A.** 75 µg/mL

**Q.** What about the MBC100 of the same substance?
**A.** >300 µg/mL

**Q.** With “GRHGGGGGHGGGHGGHGGGGGR (Modified peptide derived from human hornerin (HR 1-18 L-G/Q-G/6S-6G))” as the substance, how does the MBC90 read?
**A.** 0.038 µg/mL

**Q.** And the MBC100?
**A.** 0.15 µg/mL

**Q.** Which MBC90 does the source give for “SLSSGHGSGHGHQRGGHRSGSG (Peptide with scrambled amino acid sequence of a 18 amino acid peptide derived from human hornerin (scrHR 1-18))” here?
**A.** <0.019 µg/mL

**Q.** What about the MBC100 of the same substance?
**A.** 0.075 µg/mL

**Q.** How did the MBC100 turn out when “Biotin-GRHGSGLGHSSSHGQHGSGSGR [Biotin-HR 1-18]” was run?
**A.** >300 µg/mL

**Q.** Which results are given for “RGSGSGHQGHSSSHGLGSGHRG (Peptide with reverse sequence to 18 amino acid peptide derived from human hornerin (revHR 1-18))”?
**A.** MBC90: <0.019 µg/mL; MBC100: 0.075 µg/mL

Same assay, conditions: pH 5.5, 0.25% glucose

**Q.** Which MBC90 does the source give for “RGRGRGR (Synthetic cationic intrinsically disordered antimicrobial peptide (GR7))” here?
**A.** 0.31 µM

**Q.** And the MBC100?
**A.** 2.8 µM

**Q.** How did the MBC90 turn out when “RHGSGLGHSSSH (Peptide derived from human hornerin (HR 1-27 HRNR 2657-2668)) [HR 1-27 HRNR2657-2668]” was run?
**A.** 75-100* μg/ml

**Q.** How did the MBC90 turn out when “GKKGGKGGKGKGK (Synthetic cationic intrinsically disordered antimicrobial peptide (K-GR13))” was run?
**A.** 0.063 µM

**Q.** And the MBC100?
**A.** 2.0 µM

**Q.** “HAHSGHGQSTQRGSR (Peptide derived from human filaggrin-2 (FLG-2 2082-2096)) [FLG-22082-2096]” was tested. Which MBC90 did it give?
**A.** 0.15 µg/mL

**Q.** What about the MBC100 of the same substance?
**A.** 1.18 µg/mL

**Q.** With “HAHSGHGQSTQR (Peptide derived from human filaggrin-2 (FLG-2 2082-2093)) [FLG-22082-2093]” as the substance, how does the MBC90 read?
**A.** 0.15 µg/mL

**Q.** And the MBC100?
**A.** 2.35 µg/mL

**Q.** “HGHGH (Synthetic cationic intrinsically disordered antimicrobial peptide (GH5))” was tested. Which MBC90 did it give?
**A.** 6.0 µM

**Q.** What about the MBC100 of the same substance?
**A.** 138 µM

**Q.** How did the MBC90 turn out when “HGQSTQRGSRTAGRRGSGH (Peptide derived from human filaggrin-2 (FLG-2 2087-2105)) [FLG-22087-2105]” was run?
**A.** 0.075 µg/mL

**Q.** What about the MBC100 of the same substance?
**A.** 1.18 µg/mL

**Q.** For “HTHSGHTHGQAGSHYPESGSSVHER (Peptide derived from human filaggrin-2 (FLG-2 1969-1993)) [FLG-21969-1993]”, which MBC90 is on record?
**A.** 0.038 µg/mL

**Q.** What about the MBC100 of the same substance?
**A.** 0.3 µg/mL

**Q.** Which results are given for “HGH (Synthetic cationic intrinsically disordered antimicrobial peptide (GH3))”?
**A.** MBC90: 200 µM; MBC100: >860 µM

**Q.** For “HTHSGHTHSQARSQHGESESTVHKR (Peptide derived from human filaggrin-2 (FLG-2 1894-1918)) [FLG-21894-1918]”, which MBC90 is on record?
**A.** 0.038 µg/mL

**Q.** What about the MBC100 of the same substance?
**A.** 0.3 µg/mL

**Q.** How did the MBC100 turn out when “GRHGSGSGQSSSYSPYGSGSGWSSSR (Peptide derived from human hornerin (HRNR 2422-2447)) [HRNR2422-2447]” was run?
**A.** >300 µg/mL

**Q.** What does the source list for “HTHSGHAHGQAGSQHGESGSSVHER (Peptide derived from human filaggrin-2 (FLG-2 2044-2068)) [FLG-22044-2068]”?
**A.** MBC90: 0.038 µg/mL; MBC100: 0.3 µg/mL

**Q.** What does the source list for “HTHSGHTHGQSGSQHGESESIIHDR (Peptide derived from human filaggrin-2 (FLG-2 1515-1539)) [FLG-21515-1539]”?
**A.** MBC90: 0.075 µg/mL; MBC100: 0.59 µg/mL

**Q.** “GRHGSGSGHSSSHGQHGSGSGR (Peptide derived from human hornerin (HRNR 2186-2207)) [HRNR2186-2207]” was tested. Which MBC100 did it give?
**A.** 4.7-9.37* μg/ml

**Q.** How did the MBC90 turn out when “RGSRSGQSSRGERR (Modified peptide derived from human hornerin (HR 1-11s 2H2R-14))” was run?
**A.** 0.15 µg/mL

**Q.** What about the MBC100 of the same substance?
**A.** 4.7 µg/mL

**Q.** Which MBC100 does the source give for “GSRTAGRRGSGH (Peptide derived from human filaggrin-2 (FLG-2 2094-2105)) [FLG-22094-2105]” here?
**A.** >300 µg/mL

**Q.** How did the MBC90 turn out when “HGHGHGH (Synthetic cationic intrinsically disordered antimicrobial peptide (GH7))” was run?
**A.** 0.25 µM

**Q.** And the MBC100?
**A.** 7.2 µM

**Q.** “RHGSGLGHSSSHGQH (Peptide derived from human hornerin (HR 1-26 HRNR 2657-2671)) [HR 1-26 HRNR2657-2671]” was tested. Which MBC100 did it give?
**A.** 4.7-75* μg/ml

**Q.** Which results are given for “HAHYGYGQSTQRGSRTTGRRGSGH (Peptide derived from human filaggrin-2 (FLG-2 2232-2255)) [FLG-22232-2255]”?
**A.** MBC90: 0.075 µg/mL; MBC100: 0.59 µg/mL

**Q.** “RGSRSGQSSRGERRGSSSGSSSR (Modified peptide derived from human hornerin (HR 1-11 3H3R))” was tested. Which MBC90 did it give?
**A.** 0.3 µg/mL

**Q.** And the MBC100?
**A.** 9.375* μg/ml

**Q.** What does the source list for “THEHEQSHQRRDRQTHEDKQNRQR (Peptide derived from human repetin (RPTN 747-770)) [RPTN747-770]”?
**A.** MBC90: 0.3 µg/mL; MBC100: 150 µg/mL

**Q.** Which MBC90 does the source give for “RGRGR (Synthetic cationic intrinsically disordered antimicrobial peptide (GR5))” here?
**A.** 6.1 µM

**Q.** What about the MBC100 of the same substance?
**A.** >500 µM

**Q.** How did the MBC90 turn out when “GHHGGHGGHGHGH (Synthetic cationic intrinsically disordered antimicrobial peptide (GH13))” was run?
**A.** 0.030 µM

**Q.** What about the MBC100 of the same substance?
**A.** 0.12 µM

**Q.** What does the source list for “RGR (Synthetic cationic intrinsically disordered antimicrobial peptide (GR3))”?
**A.** MBC90: 150 µM; MBC100: >930 µM

**Q.** With “HSSSHGQHGSGSGR (Peptide derived from human hornerin (HR 1-38 HRNR 2664-2677)) [HR 1-38 HRNR2664-2677]” as the substance, how does the MBC100 read?
**A.** >300 µg/mL

**Q.** With “HGHGHGHGH (Synthetic cationic intrinsically disordered antimicrobial peptide (GH9))” as the substance, how does the MBC90 read?
**A.** 0.18 µM

**Q.** And the MBC99?
**A.** MBC99: 99 μM

**Q.** What about the MBC100 of the same substance?
**A.** >400, μM

**Q.** For GOOGGOGGOGOGO [Orn-GR13], which MBC90 is on record?
**A.** 0.034 µM

**Q.** And the MBC100?
**A.** 1.1 µM

**Q.** What does the source list for “TAGRRGSGH (Peptide derived from human filaggrin-2 (FLG-2 2097-2105)) [FLG-22097-2105]”?
**A.** MBC90: >300 µg/mL; MBC100: >300 µg/mL

Same assay, conditions: pH 5.5, 1% TSB

**Q.** With “HGSRSGQSSGGGRHGSSSGSSSH (Modified peptide derived from human hornerin (HR 1-11 E-G E2617G))” as the substance, how does the MBC90 read?
**A.** 0.59 µg/mL

**Q.** What about the MBC100 of the same substance?
**A.** >300 µg/mL

**Q.** For “GSGSRQSSSYGRHGSGSGR (Modified peptide derived from human hornerin (HR 2-4S HRNR 1132-1150 P1139S)) [HR 2-4S HRNR1132-1150 P1139S]”, which MBC90 is on record?
**A.** 150 µg/mL

**Q.** What about the MBC100 of the same substance?
**A.** >300 µg/mL

**Q.** With “GSGSRQSSGHGRQGSGSGQ (Modified peptide derived from human hornerin (HR 1-16 HRNR 2633-2651)) [HR 1-16 HRNR2633-2651]” as the substance, how does the MBC90 read?
**A.** >300 µg/mL

**Q.** What about the MBC100 of the same substance?
**A.** >300 µg/mL

**Q.** “GRHGSGSGQSSSYGPYRSGSGWSSSRGPY (Peptide derived from human hornerin (HRNR 1013-1041)) [HRNR1013-1041]” was tested. Which MBC100 did it give?
**A.** >300 µg/mL

**Q.** With “GSGSRQSPSRGRHGSGSGR (Modified peptide derived from human hornerin (HR 2-4R HRNR 1132-1150 Y1141R)) [HR 2-4R HRNR1132-1150 Y1141R]” as the substance, how does the MBC100 read?
**A.** >300 µg/mL

**Q.** Which MBC90 does the source give for “GGSRSGQSSRGERHGSSSGSSSH (Modified peptide derived from human hornerin (HR 1-11 H1-GH2606G))) [HR 1-11 H1-G H2606G]” here?
**A.** >300* μg/ml

**Q.** What about the MBC100 of the same substance?
**A.** >300* μg/ml

**Q.** Which MBC90 does the source give for “HGSRSGQSSRGEGHGSSSGSSSH (Modified peptide derived from human hornerin (HR 1-11 R3-G R2618G))” here?
**A.** 75 µg/mL

**Q.** What about the MBC100 of the same substance?
**A.** >300 µg/mL

**Q.** Which results are given for “HGSRSGQSSGGERHGSSSGSSSH (Modified peptide derived from human hornerin (HR 1-11 R2-G R2615G))”?
**A.** MBC90: 75 µg/mL; MBC100: >300 µg/mL

**Q.** How did the MBC100 turn out when “GRHGSGSGQSSSYGPYGSGSGWSSSRGPY (Peptide derived from human hornerin (HRNR 1952-1980)) [HRNR1952-1980]” was run?
**A.** >300 µg/mL

**Q.** How did the MBC90 turn out when “SRQSPSYGRHGSGR (Modified peptide derived from human hornerin (HR 2-15 HRNR 1136-1150 S1148R)) [HR 2-15 HRNR1136-1150 S1148R]” was run?
**A.** 75 µg/mL

**Q.** And the MBC100?
**A.** >300 µg/mL

**Q.** “GSGSRQSPSYGRHGSGSGRSSSSGQH (Peptide derived from human hornerin (HR 2-11 HRNR 1132-1157)) [HR 2-11 HRNR1132-1157]” was tested. Which MBC90 did it give?
**A.** 37.5 µg/mL

**Q.** What about the MBC100 of the same substance?
**A.** >300 µg/mL

**Q.** How did the MBC90 turn out when “GRHGSGLGHSSSHGQH (Peptide derived from human hornerin (HR 1-25 HRNR 2656-2671)) [HR 1-25 HRNR2656-2671]” was run?
**A.** 0.3 µg/mL

**Q.** And the MBC100?
**A.** 4.7 µg/mL

**Q.** Which results are given for “HGSRSGQSSRGERHGSSSGSSSG (Modified peptide derived from human hornerin (HR 1-11 H3-G H2628G))”?
**A.** MBC90: 18.75 µg/mL; MBC100: >300 µg/mL

**Q.** Which MBC90 does the source give for “GSGSRQSLSYGRHGSGSGR (Modified peptide derived from human hornerin (HR 2-4L HRNR 1132-1150 P1139L)) [HR 2-4L HRNR1132-1150 P1139L]” here?
**A.** 75 µg/mL

**Q.** What about the MBC100 of the same substance?
**A.** >300 µg/mL

**Q.** Which MBC90 does the source give for “GSGSRQSPSHGRHGSGSGR (Modified peptide derived from human hornerin (HR 2-4H HRNR 1132-1150 Y1141H)) [HR 2-4H HRNR1132-1150 Y1141H]” here?
**A.** 75 µg/mL

**Q.** What about the MBC100 of the same substance?
**A.** >300 µg/mL

Same assay, conditions: pH 7.0, 0.25% glucose

**Q.** “GRHGSGGGHSSSHGGHGSGSGR (Modified peptide derived from human hornerin (HR 1-18 L-G/Q-G))” was tested. Which MBC90 did it give?
**A.** >300 µg/mL

**Q.** What about the MBC100 of the same substance?
**A.** >300 µg/mL

**Q.** With “GRHGGGGGHGGGHGGHGGGGGR (Modified peptide derived from human hornerin (HR 1-18 L-G/Q-G/6S-6G))” as the substance, how does the MBC90 read?
**A.** >300 µg/mL

**Q.** What about the MBC100 of the same substance?
**A.** >300 µg/mL
